The target of experiment [1] is Vascular endothelial growth factor receptor 1 (Homo sapiens, UniProt P17948). In kind it is cell-based. The conditions noted are these: huvec. Note: in other assays of this panel Not Active means under 50% inhibition at 10 µM.
The nature of experiment [2]: DRUGMATRIX: Glutamate, Kainate radioligand binding (ligand: [3H] Kainic acid). In kind it is cell membranes, Rattus norvegicus, Wistar, Brain, Membrane. The conditions noted are these: Not Active = under 50% inhibition at 10 µM.
Experiment [3] in a line: DRUGMATRIX: Phorbol Ester radioligand binding (ligand: [3H] PDBu). Format: cell membranes, Mus musculus, ICR, Brain, Membrane. The conditions noted are these: Not Active = under 50% inhibition at 10 µM.
In a further experiment the target is Vasopressin V1a receptor (Homo sapiens, UniProt P37288). In kind it is cell membranes, Membrane. The conditions noted are these: hek293. Note: in other assays of this panel Not Active means under 50% inhibition at 10 µM.
Vasopressin V1a receptor, sequence (P37288 whole entry): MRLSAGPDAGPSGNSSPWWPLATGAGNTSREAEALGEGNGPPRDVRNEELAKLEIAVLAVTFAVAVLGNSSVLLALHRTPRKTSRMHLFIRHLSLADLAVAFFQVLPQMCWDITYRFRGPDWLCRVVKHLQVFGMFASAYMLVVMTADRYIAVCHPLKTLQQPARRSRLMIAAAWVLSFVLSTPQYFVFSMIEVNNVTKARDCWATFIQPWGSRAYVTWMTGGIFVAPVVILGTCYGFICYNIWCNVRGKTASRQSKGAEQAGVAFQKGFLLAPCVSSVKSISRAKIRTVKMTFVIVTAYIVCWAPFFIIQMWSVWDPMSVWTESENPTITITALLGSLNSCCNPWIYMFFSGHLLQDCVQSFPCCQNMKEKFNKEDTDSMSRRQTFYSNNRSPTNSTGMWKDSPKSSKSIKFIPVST
Experiment [4] has as its target T1, Alpha-2A adrenergic receptor (Homo sapiens, UniProt P08913). Note: in other assays of this panel Not Active means under 50% inhibition at 10 µM.
T1 sequence (P08913 whole entry): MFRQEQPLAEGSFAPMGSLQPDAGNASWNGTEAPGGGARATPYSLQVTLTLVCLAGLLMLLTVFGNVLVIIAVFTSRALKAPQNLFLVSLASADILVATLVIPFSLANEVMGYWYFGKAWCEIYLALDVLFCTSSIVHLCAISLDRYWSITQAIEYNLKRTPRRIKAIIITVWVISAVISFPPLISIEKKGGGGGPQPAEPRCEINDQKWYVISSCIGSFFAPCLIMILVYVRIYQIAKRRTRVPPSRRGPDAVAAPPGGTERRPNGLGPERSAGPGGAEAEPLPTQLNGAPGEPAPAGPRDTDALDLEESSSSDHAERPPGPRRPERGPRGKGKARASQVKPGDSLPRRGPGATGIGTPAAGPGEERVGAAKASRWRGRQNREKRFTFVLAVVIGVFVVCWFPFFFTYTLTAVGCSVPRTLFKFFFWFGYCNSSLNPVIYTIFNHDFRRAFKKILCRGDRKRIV
Format: cell membranes, Sf9, Membrane.

The nature of experiment [5]: DRUGMATRIX: Atrial Natriuretic Factor (ANF) radioligand binding (ligand: [125I] ANF (rat)). In kind it is cell membranes, Cavia porcellus, Dunkin-Hartley, Adrenal gland, Membrane. The conditions noted are these: Not Active = under 50% inhibition at 10 µM.
The target of experiment [6] is T2, Type-2 angiotensin II receptor (Homo sapiens, UniProt P50052). Note: in other assays of this panel Not Active means under 50% inhibition at 10 µM.
T2 sequence (P50052 whole entry): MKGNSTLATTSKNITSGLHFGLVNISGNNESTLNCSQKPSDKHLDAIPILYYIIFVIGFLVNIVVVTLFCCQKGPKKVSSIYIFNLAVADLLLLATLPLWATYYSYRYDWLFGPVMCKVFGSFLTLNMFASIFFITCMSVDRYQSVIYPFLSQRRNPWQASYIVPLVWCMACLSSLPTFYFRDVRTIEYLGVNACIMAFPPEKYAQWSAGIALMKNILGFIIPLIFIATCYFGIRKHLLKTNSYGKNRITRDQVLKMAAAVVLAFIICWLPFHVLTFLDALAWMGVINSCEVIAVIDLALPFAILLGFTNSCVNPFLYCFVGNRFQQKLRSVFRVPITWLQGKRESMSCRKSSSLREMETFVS
Kind of experiment: biochemical. Format: cell-based, CHO-K1. The conditions noted are these: cho-k1.

Experiment [7] deals with T3, Nitric oxide synthase, inducible (Mus musculus, UniProt P29477).
T3 sequence (P29477 whole entry): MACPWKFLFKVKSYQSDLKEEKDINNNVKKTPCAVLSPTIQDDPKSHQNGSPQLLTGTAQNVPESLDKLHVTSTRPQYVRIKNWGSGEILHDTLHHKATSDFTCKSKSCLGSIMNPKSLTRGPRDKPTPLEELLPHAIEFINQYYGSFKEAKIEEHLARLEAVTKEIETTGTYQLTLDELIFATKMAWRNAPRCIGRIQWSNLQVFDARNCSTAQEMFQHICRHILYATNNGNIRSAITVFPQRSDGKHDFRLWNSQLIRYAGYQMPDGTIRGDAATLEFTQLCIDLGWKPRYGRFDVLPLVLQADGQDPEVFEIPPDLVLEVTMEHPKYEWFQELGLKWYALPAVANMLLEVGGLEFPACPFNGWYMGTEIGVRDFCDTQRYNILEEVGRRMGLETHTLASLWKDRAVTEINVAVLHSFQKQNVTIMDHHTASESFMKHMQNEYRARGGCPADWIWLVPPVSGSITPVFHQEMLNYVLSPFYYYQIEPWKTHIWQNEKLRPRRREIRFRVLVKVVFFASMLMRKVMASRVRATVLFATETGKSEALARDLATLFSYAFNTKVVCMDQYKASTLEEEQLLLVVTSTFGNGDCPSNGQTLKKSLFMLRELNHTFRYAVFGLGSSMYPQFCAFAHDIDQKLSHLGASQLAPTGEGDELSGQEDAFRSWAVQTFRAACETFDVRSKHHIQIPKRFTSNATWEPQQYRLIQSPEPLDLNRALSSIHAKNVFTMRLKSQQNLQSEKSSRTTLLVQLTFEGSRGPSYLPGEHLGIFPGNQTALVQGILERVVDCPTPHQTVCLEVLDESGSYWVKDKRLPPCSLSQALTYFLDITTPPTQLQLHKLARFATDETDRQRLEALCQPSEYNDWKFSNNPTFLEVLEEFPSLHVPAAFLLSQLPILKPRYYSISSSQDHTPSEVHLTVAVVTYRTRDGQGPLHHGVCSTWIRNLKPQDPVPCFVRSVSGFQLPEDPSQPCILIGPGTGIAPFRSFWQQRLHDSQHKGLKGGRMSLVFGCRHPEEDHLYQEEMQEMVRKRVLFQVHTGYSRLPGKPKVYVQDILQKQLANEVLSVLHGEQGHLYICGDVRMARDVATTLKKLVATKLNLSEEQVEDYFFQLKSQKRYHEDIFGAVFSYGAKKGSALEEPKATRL
Set-up: species or system Escherichia coli.

Vascular endothelial growth factor receptor 1, sequence (P17948 whole entry): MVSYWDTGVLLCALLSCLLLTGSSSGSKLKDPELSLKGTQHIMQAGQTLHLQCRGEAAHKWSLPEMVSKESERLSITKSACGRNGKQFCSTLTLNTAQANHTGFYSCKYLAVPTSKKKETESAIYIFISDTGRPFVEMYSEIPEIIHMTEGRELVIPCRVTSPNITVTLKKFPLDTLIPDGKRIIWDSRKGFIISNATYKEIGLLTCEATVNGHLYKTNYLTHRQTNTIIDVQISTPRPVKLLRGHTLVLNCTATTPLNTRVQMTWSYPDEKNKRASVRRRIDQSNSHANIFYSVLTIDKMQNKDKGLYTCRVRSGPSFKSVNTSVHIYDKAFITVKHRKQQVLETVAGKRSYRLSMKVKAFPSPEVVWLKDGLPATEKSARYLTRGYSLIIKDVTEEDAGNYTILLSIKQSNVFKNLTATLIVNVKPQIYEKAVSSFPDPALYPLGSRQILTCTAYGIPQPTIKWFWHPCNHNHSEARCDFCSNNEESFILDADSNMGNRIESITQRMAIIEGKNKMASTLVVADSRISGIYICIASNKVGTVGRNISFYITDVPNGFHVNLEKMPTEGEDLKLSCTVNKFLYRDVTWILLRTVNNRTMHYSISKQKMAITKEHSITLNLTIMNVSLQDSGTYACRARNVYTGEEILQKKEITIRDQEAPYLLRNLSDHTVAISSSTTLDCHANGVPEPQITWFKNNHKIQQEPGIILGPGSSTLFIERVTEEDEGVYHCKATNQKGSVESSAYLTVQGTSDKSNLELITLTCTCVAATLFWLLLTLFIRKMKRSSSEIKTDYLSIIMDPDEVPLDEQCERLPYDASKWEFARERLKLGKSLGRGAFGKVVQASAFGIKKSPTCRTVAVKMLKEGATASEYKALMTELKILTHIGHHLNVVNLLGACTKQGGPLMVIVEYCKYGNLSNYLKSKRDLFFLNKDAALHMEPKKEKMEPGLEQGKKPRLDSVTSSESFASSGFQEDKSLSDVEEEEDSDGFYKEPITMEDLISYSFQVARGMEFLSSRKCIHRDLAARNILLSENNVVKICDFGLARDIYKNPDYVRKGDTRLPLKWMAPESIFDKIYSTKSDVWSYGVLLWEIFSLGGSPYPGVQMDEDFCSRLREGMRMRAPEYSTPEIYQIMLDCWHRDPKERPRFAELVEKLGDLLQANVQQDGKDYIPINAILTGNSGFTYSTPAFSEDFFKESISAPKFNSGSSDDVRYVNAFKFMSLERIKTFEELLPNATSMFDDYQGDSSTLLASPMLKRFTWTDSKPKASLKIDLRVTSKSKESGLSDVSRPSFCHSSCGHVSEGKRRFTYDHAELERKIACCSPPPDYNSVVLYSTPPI

As to `O=C(O)CC(O)(CC(=O)O)C(=O)O` [CITRIC ACID], the IC50 entry (in experiment [1]; in experiment [2]; in experiment [3]; at Vasopressin V1a receptor; in experiment [4] (sf9); in experiment [5]) was “Not Active” in each case. In addition, the IC50 entry in experiment [6] and in experiment [7] was “Not Active” each time. Moreover, the Ki result in experiment [2], in experiment [3] and in experiment [5] was “Not Active” in each case.
In the case of `CC(C)NCC(O)c1ccccc1Cl` (centres undefined) [CLORPRENALINE], the IC50 result (in experiment [1]; in experiment [2]; in experiment [3]; on Vasopressin V1a receptor; in experiment [4] (sf9); in experiment [5]) was “Not Active” in each case. Further, the IC50 result in experiment [6] and in experiment [7] was “Not Active” throughout. In addition, the Ki result in experiment [2], in experiment [3] and in experiment [5] was “Not Active” in each case.
Turning to `CN1CCN(C(c2ccccc2)c2ccccc2)CC1` [CYCLIZINE], the IC50 – broadly, the concentration that inhibits the measured activity by half – in experiment [1] was “Not Active”; in experiment [2] it was “Not Active”; in experiment [3], “Not Active”; on Vasopressin V1a receptor, “Not Active”; in experiment [4] (read-out: IC50), 1550 nM; in experiment [5], “Not Active”. Besides, the IC50 entry in experiment [6] and in experiment [7] was “Not Active” in each case. For the same compound, the Ki (commonly a dissociation constant, usually derived from enzyme kinetics or from competition with a known ligand) in experiment [2] was “Not Active”; in experiment [3] it was “Not Active”; in experiment [4] (read-out: Ki) it was 582 nM; in experiment [5], “Not Active”.
Regarding `CN1C[C@@H]2C[C@H]1CN2c1cc2c(cc1F)c(=O)c(C(=O)O)cn2C1CC1` [DANOFLOXACIN], the IC50 entry (in experiment [1]; in experiment [2]; in experiment [3]; against Vasopressin V1a receptor; in experiment [4] (sf9); in experiment [5]) was “Not Active” throughout. For the same compound, the IC50 entry in experiment [6] and in experiment [7] was “Not Active” throughout. The Ki result in experiment [2], in experiment [3] and in experiment [5] was “Not Active” each time.
Turning to `COc1cccc2c1C(=O)c1c(O)c3c(c(O)c1C2=O)C[C@@](O)(C(C)=O)C[C@@H]3O[C@H]1C[C@H](N)[C@H](O)[C@H](C)O1` [DAUNORUBICIN], the IC50 result (in experiment [1]; in experiment [2]; in experiment [3]; on Vasopressin V1a receptor; in experiment [4] (sf9); in experiment [5]) was “Not Active” in each case. The IC50 result in experiment [6] and in experiment [7] was “Not Active” in each case. Further, the Ki result in experiment [2], in experiment [3] and in experiment [5] was “Not Active” in each case.
For `O=C(O)c1cc(-c2ccc(F)cc2F)ccc1O` [DIFLUNISAL], the half-maximal inhibitory concentration (IC50) result (in experiment [1]; in experiment [2]; in experiment [3]; against Vasopressin V1a receptor; in experiment [4] (sf9); in experiment [5]) was “Not Active” throughout. Also, the IC50 result in experiment [6] and in experiment [7] was “Not Active” throughout. Further, the Ki result in experiment [2], in experiment [3] and in experiment [5] was “Not Active” each time.
For `C[S+](C)[O-]` [DIMETHYL SULFOXIDE], the IC50 result (in experiment [1]; in experiment [2]; in experiment [3]; at Vasopressin V1a receptor; in experiment [4] (sf9); in experiment [5]) was “Not Active” in each case. Moreover, the IC50 entry in experiment [6] and in experiment [7] was “Not Active” throughout. The Ki result in experiment [2], in experiment [3] and in experiment [5] was “Not Active” each time.
For `CC1=NN(c2ccccc2)C(=O)C1` [EDARAVONE], the IC50 result (in experiment [1]; in experiment [2]; in experiment [3]; at Vasopressin V1a receptor; in experiment [4] (sf9); in experiment [5]) was “Not Active” each time. The IC50 result in experiment [6] and in experiment [7] was “Not Active” in each case. For the same compound, the Ki result in experiment [2], in experiment [3] and in experiment [5] was “Not Active” in each case.

The values are drawn from ChEMBL document CHEMBL1909046, “DrugMatrix in vitro pharmacology data”.
